From patent US9822343B2, “Methods and materials for obtaining induced pluripotent stem cells” (priority 2011, dated 2017)

Legend:
Type in all cases: cell-based, mouse
[1] = tested on: MEFs; assay: 1H NMR metabolomic footprinting of extracellular metabolites of treated MEFs; conditions: control experiments; 1.25 mM 2-DG, 100 μM BrPA, 5 mM DCA versus vehicle; n=3
Protocol: For footprinting of extracellular metabolites, 540 μL of media collected following 24 hours of culture was added to 60 μL of D2O (Sigma) containing 5 mM sodium 3-(trimethylsilyl)propionate-2,2,3,3-d4 (TSP) (Sigma) for chemical shift reference and 81.84 mM formate (Sigma) for peak quantification reference as described elsewhere (Turner et al., Stem Cells, 26:1547-1555 (2008)). Briefly, MEFs, iPS cells, and R1ESC were maintained in DMEM containing 15% FBS, pyruvate, L-glutamine, nonessential amino acids, 2-mercaptoethanol, and LIF in 6 well plates at 37° C. in a humidified incubator with 95% air and 5% CO2 (Martinez-Fernandez et al., Circ Res., 25; 105(7):648-56 (2009)). […]
For intracellular metabolite fingerprinting, neutralized perchloric acid extracts were concentrated with a SpeedVac and suspended in 600 μL of 100 mM phosphate buffer (pH 7.0) in D2O (Sigma) containing 0.5 mM TSP as described elsewhere (Beckonert et al., Nat. Protoc., 2:2692-2703 (2007)). […] Following Fourier transformation, spectra were autophased with metabonomic phase correction, baseline corrected using a Bernstein polynomial fit and referenced to the TSP peak (0.00 ppm) using MestReNova 5.3.2 (MestRelab Research). p-toluenesulfonic acid (Sigma) was utilized as a reference standard to calibrate the formate concentration for quantitative analysis (Shao et al., J. Chromatogr. A, 1138:305-308 (2007)). […]

[2] = tested on: MEFs undergoing nuclear reprogramming; assay: Reprogramming efficiency by alkaline phosphatase staining; conditions: 2-DG during reprogramming (media supplemented with 0.25 or 1.25 mM 2DG)
From the text: (§1) Mouse embryonic fibroblasts (MEFs) were transduced with HIV-based viral vectors encoding OCT3/4, SOX2, and KLF4 either in the presence (4F) or absence of c-MYC (3F) to produce iPS clones that met pluripotent criteria including expression of stem cell markers, embryoid body differentiation, teratoma formation, diploid aggregation, and contribution to organogenesis (Martinez-Fernandez et al., Circ. Res., 105:648-656 (2009); Nelson et al., Clin. Transl. Sci., 2:118-126 (2009); and Nelson et al., Circulation, 120:408-416 (2009)). Alternatively, iPS cells were derived with a viPS (Open Biosystems) kit. iPS cells were induced and maintained in ES Cell qualified DMEM supplemented with 15% FBS, 25 mM glucose, 2 mM Glutamax (Invitrogen), and 1 mM sodium pyruvate. In reprogramming experiments, media was supplemented with 0.25 or 1.25 mM 2DG (Sigma), 100 μM BrPA (Sigma) or 5 mM DCA (Sigma). Reprogramming efficiency was quantified using an alkaline phosphatase staining kit (Stemgent) or FACS analysis of SSEA-1 expression (Millipore) on a LSR II flow cytometer.

[3] = tested on: parental MEF population; assay: Growth of the parental MEF population; conditions: 1.25 mM 2-DG, 100 μM BrPA, 5 mM DCA
[4] = tested on: MEFs undergoing nuclear reprogramming; assay: Reprogramming efficiency by FACS analysis of SSEA-1 expression; conditions: vehicle 27.8±3.1, mean±SEM, n=3
From the text: as §1

SMILES: O=CC[C@@H](O)[C@H](O)[C@H](O)CO [2-DG, 2-deoxyglucose]
- Extracellular metabolite profile of treated MEFs [1]: consistent with inhibition of glycolysis and stimulation of oxidative metabolism
- Induction of the pluripotent marker alkaline phosphatase [2]: blunted induction of the pluripotent marker alkaline phosphatase
- Cell growth of parental MEF population [3]: without impairing cell growth
- % SSEA1 positive cells (reprogramming efficiency) ([4]; 1.25 mM 2-DG during reprogramming): 0.9±0.3 % SSEA1 positive cells

SMILES: O=C(O)C(=O)CBr [BrPA, 3-bromopyruvic acid]
- Extracellular metabolite profile of treated MEFs [1]: consistent with inhibition of glycolysis and stimulation of oxidative metabolism
- Cell growth of parental MEF population [3]: without impairing cell growth
- % SSEA1 positive cells (reprogramming efficiency) ([4]; 100 μM BrPA during reprogramming): 19.8±1.0 % SSEA1 positive cells

SMILES: O=C(O)C(Cl)Cl [DCA, dichloroacetate]
- Cell growth of parental MEF population [3]: without impairing cell growth
- % SSEA1 positive cells (reprogramming efficiency) ([4]; 5 mM DCA during reprogramming): 17.3±1.5 % SSEA1 positive cells
